Source: paper PMC6830242, “In vitro inhibition of Mycobacterium tuberculosis β-carbonic anhydrase 3 with Mono- and dithiocarbamates and evaluation of their toxicity using zebrafish developing embryos” (Journal of Enzyme Inhibition and Medicinal Chemistry, 2019)
pKi: −log10 of the molar value.

Molecular target: T1, Mtb β-CA3 (Mycobacterium tuberculosis, UniProt P96878)
T1 construct: gene Rv3273
Experiment: stopped-flow CO2 hydrase assay
Type: biochemical
Description: stopped-flow CO2 hydrase assay on Mtb β-CA3

T1 sequence (P96878 555-764 limits assumed): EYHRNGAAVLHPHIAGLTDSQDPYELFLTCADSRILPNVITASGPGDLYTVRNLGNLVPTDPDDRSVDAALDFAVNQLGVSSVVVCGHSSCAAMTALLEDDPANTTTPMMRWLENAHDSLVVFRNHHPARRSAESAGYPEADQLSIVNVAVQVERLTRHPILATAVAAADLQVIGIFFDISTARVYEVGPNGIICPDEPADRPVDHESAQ

Structure (SMILES)	pKi
CCCN(CCC)C(=O)S [compound 1, 1]	6.25
O=C(S)N1CCOCC1 [compound 2, MTC based morpholine 2]	6.13
O=C(S)N1CCN(C(=O)S)CC1 [compound 3, 3]	6.09
O=C(S)NCCc1ccccc1 [compound 5, phenylethyl 5]	7.03
O=C(CN1CCN(C(=O)S)CC1)NC1CCCCC1 [compound 6, 6]	6.11
COc1ccc(CCNC(=O)S)cc1OC [compound 7, 3,4-dimethoxyphenylethyl derivative 7]	7.01
CC(C)CN(CC(C)C)C(=S)S [compound 8, DTC 8]	7.37
S=C(S)N1CCOCC1 [compound 9, morpholine DTC 9]	8.62
S=C(S)N1CCN(C(=S)S)CC1 [compound 10, bis-piperazine derivative DTC 10]	8.10
O=C(CN1CCN(C(=S)S)CC1)NC1CCCCC1 [compound 11, DTC 11]	< 5.70
